{"source": "patent US5869494A", "about": "“Uses for barbituric acid analogs” (priority 1997, dated 1999)", "tested_on": "DU-145 human prostate tumors", "test": "Human DU-145 prostate tumors transplanted into athymic mice, oral treatment", "type": "in vivo, athymic BALB/c nude-nu mice", "details": "400 mg/kg oral", "from_the_text": "Male athymic BALB/c nude-nu mice (6-8 weeks old, 18-22 g each) were purchased from Harlan Sprague-Dawley, Inc. (Indianapolis, Ind.) and maintained in a germ-free environment. The mice had free access to sterile food and water. Human prostate DU-145 cells (1×10^7) were transplanted subcutaneously into athymic mice. Solid tumors appearing after 30 days were cut into small pieces (2-2 mm) and transplanted into native mice. […] The treatment schedule consisted of a single dose on alternate days. The control group of animals (3 mice) received vehicle only. […] At this point, the treatment was terminated and animals were kept under observation for the regrowth of prostate tumors.\nformula % TGI = 100(1Vt /Vc), where Vt and Vc are the […]", "note": "“Also recorded” adds a separate entry of the source."}
{"smiles": "CCCCN1C(=O)CC(=O)N(CCCC)C1=S", "note": "[Compound C1, 4,6(1H, 5H)-pyrimidinedione, 1,3-dibutyldihydro-2-thioxo]", "values": [{"measurement": "regrowth of tumors", "setting": "5 months posttreatment", "result": "no signs of tumor regrowth; also recorded: regrowth of treated tumors did not occur for a period of 5 months"}, {"measurement": "palpable prostate tumors", "setting": "after 18 doses", "result": "palpable prostate tumors in the treated group could not be detected; also recorded: palpable tumors were not detectable in treated animals"}, {"measurement": "% TGI (percent tumor growth inhibition)", "setting": "alternate days, 18 doses", "result": 99.0, "unit": "%"}, {"measurement": "side effects such as weight loss, diarrhea, lethargy or discomfort", "setting": "alternate days, 18 doses", "result": "not observed; also recorded: No observable side effects"}, {"measurement": "Tumor Area", "setting": "alternate days, 18 doses, control 19.90 ± 7.1", "result": 0.0, "unit": "cm^2"}, {"measurement": "Tumor Volume", "setting": "alternate days, 18 doses, control 20.64 ± 7.01", "result": 0.0, "unit": "cm^3"}, {"measurement": "Animal Weight", "setting": "alternate days, 18 doses, control 28.5", "result": 29.3, "unit": "g"}]}
